As a reminder, the IC50 is the concentration that gives 50% inhibition.

The target of the assay is T1, GCS (Canis lupus familiaris, UniProt A0A8I3MXG6).
T1 construct: endogenous in cells; host or cells: MDCK (Madin-Darby canine kidney) cells, whole-cell lysate
T1 sequence (A0A8I3MXG6 1-394): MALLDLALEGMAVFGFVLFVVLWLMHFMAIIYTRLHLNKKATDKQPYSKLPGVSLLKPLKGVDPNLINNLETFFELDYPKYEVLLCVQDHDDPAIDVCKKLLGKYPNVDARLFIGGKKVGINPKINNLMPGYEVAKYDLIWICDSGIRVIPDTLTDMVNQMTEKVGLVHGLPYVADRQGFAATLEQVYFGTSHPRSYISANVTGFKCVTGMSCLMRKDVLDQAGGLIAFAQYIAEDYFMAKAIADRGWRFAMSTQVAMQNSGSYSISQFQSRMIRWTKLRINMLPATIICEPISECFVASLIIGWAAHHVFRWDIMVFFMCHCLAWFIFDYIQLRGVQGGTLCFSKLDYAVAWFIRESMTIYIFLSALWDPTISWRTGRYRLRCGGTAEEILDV
Briefly: GCS enzymatic assay (MDCK cell lysate, NBD-ceramide to glucosylceramide, LC/MS). The class given is biochemical, canine. Conditions: Table 2, the table does not say which of the assays; for Data Range (% inhibition): class symbols D, E, F, NA (not active); for IC50: class symbols A, B, C, read-out: Data Range (IC50 values). An outline of the steps: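 Dog MDCK cell lysate served as enzyme source, with NBD-ceramide turned over to glucosylceramide and 0.1% DMSO as mock control. The reaction was stopped with acetonitrile. Both lipids were quantified by LC/MS/MS in ESI positive MRM mode against a tolbutamide internal standard, giving IC50 or percent inhibition.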

With `O=C(N[C@H](CN1CCCC1)[C@H](O)c1cc(F)c2c(c1)OCCO2)[C@H]1CCN(c2ccccn2)C1` [Compound 48A, (S)-N-((1R,2R)-1-(8-fluoro-2,3-dihydrobenzo[b][1,4]dioxin-6-yl)-1-hydroxy-3-(pyrrolidin-1-yl)propan-2-yl)-1-(pyridin-2-yl)pyrrolidine-3-carboxamide], the “Data Range (% inhibition)” value is “F (1-49% (or less than 50%))”. Consider `CN1CCC(Oc2ccc([C@@H](O)[C@@H](CN3CCCC3)NC(=O)[C@@H]3CCN(c4ccc(Cl)cc4)C3)cc2Cl)CC1` [Compound 49, (R)-N-((1R,2R)-1-(3-chloro-4-((1-methylpiperidin-4-yl)oxy)phenyl)-1-hydroxy-3-(pyrrolidin-1-yl)propan-2-yl)-1-(4-chlorophenyl)pyrrolidine-3-carboxamide], for which the 50% inhibitory concentration (IC50) lay within 0.03 to 0.1 µM. Take `CN1CCC(Oc2ccc([C@@H](O)[C@@H](CN3CCCC3)NC(=O)[C@H]3CCN(c4ccc(Cl)cc4)C3)cc2Cl)CC1` [Compound 49A, (S)-N-((1R,2R)-1-(3-chloro-4-((1-methylpiperidin-4-yl)oxy)phenyl)-1-hydroxy-3-(pyrrolidin-1-yl)propan-2-yl)-1-(4-chlorophenyl)pyrrolidine-3-carboxamide]: the “Data Range (% inhibition)” value was “F (1-49% (or less than 50%))”. For the compound `O=C(N[C@H](CN1CCCC1)[C@H](O)c1ccc(OC2CCOCC2)c(Cl)c1)[C@@H]1CCN(c2ccc3cc(F)ccc3c2)C1` [Compound 50, (R)-N-((1R,2R)-1-(3-chloro-4-((tetrahydro-2H-pyran-4-yl)oxy)phenyl)-1-hydroxy-3-(pyrrolidin-1-yl)propan-2-yl)-1-(6-fluoronaphthalen-2-yl)pyrrolidine-3-carboxamide], the IC50 was 0.001 to 0.03 µM.

As to `O=C(N[C@H](CN1CCCC1)[C@H](O)c1ccc(OC2CCOCC2)c(Cl)c1)[C@H]1CCN(c2ccc3cc(F)ccc3c2)C1` [Compound 50A, (S)-N-((1R,2R)-1-(3-chloro-4-((tetrahydro-2H-pyran-4-yl)oxy)phenyl)-1-hydroxy-3-(pyrrolidin-1-yl)propan-2-yl)-1-(6-fluoronaphthalen-2-yl)pyrrolidine-3-carboxamide], the “Data Range (% inhibition)” value is “E (50-74% (or less than 75%))”. On the same count and under the same terms, the entry for `CC1(C)CCc2cc([C@@H](O)[C@@H](CN3CCCC3)NC(=O)[C@@H]3CCN(c4ccc(Cl)cc4)C3)ccc2O1` [Compound 51, (R)-1-(4-chlorophenyl)-N-((1R,2R)-1-(2,2-dimethylchroman-6-yl)-1-hydroxy-3-(pyrrolidin-1-yl)propan-2-yl)pyrrolidine-3-carboxamide] is “F (1-49% (or less than 50%))”; for `CC1(C)CCc2cc([C@@H](O)[C@@H](CN3CCCC3)NC(=O)[C@H]3CCN(c4ccc(Cl)cc4)C3)ccc2O1` [Compound 51A, (S)-1-(4-chlorophenyl)-N-((1R,2R)-1-(2,2-dimethylchroman-6-yl)-1-hydroxy-3-(pyrrolidin-1-yl)propan-2-yl)pyrrolidine-3-carboxamide] it is “NA (not active—a negative value was generated for % inhibition)”. Consider `O=C(N[C@H](CN1CCCC1)[C@H](O)c1cc(F)c2c(c1)OCCO2)[C@@H]1CCN(c2ccc3cc(F)ccc3c2)C1` [Compound 52, (R)-N-((1R,2R)-1-(8-fluoro-2,3-dihydrobenzo[b][1,4]dioxin-6-yl)-1-hydroxy-3-(pyrrolidin-1-yl)propan-2-yl)-1-(6-fluoronaphthalen-2-yl)pyrrolidine-3-carboxamide], for which the IC50 fell in the range of 0.001 to 0.03 µM. `O=C(N[C@H](CN1CCCC1)[C@H](O)c1cc(F)c2c(c1)OCCO2)[C@H]1CCN(c2ccc3cc(F)ccc3c2)C1` [Compound 52A, (S)-N-((1R,2R)-1-(8-fluoro-2,3-dihydrobenzo[b][1,4]dioxin-6-yl)-1-hydroxy-3-(pyrrolidin-1-yl)propan-2-yl)-1-(6-fluoronaphthalen-2-yl)pyrrolidine-3-carboxamide]: the “Data Range (% inhibition)” value is given as “E (50-74% (or less than 75%))”. `O=C(N[C@H](CN1CCCC1)[C@H](O)c1ccc2c(c1)OCCO2)[C@@H]1CCN(c2ccc3ccsc3c2)C1` [Compound 53, (R)-1-(benzo[b]thiophen-6-yl)-N-((1R,2R)-1-(2,3-dihydrobenzo[b][1,4]dioxin-6-yl)-1-hydroxy-3-(pyrrolidin-1-yl)propan-2-yl)pyrrolidine-3-carboxamide]: the “Data Range (% inhibition)” value is given as “E (50-74% (or less than 75%))”.

Take `O=C(N[C@H](CN1CCCC1)[C@H](O)c1ccc2c(c1)OCCO2)C1CCN(c2ccc3ccsc3c2)C1` (stereo partly drawn) [Compound 53C, 1-(benzo[b]thiophen-6-yl)-N-((1R,2R)-1-(2,3-dihydrobenzo[b][1,4]dioxin-6-yl)-1-hydroxy-3-(pyrrolidin-1-yl)propan-2-yl)pyrrolidine-3-carboxamide]: the IC50 was in the range of 0.03 to 0.1 µM. The same measure, in the same setting: the result for `O=C(N[C@H](CN1CCCC1)[C@H](O)c1ccc2c(c1)OCCO2)[C@H]1CCN(c2ccc3ccsc3c2)C1` [Compound 53D, (S)-1-(benzo[b]thiophen-6-yl)-N-((1R,2R)-1-(2,3-dihydrobenzo[b][1,4]dioxin-6-yl)-1-hydroxy-3-(pyrrolidin-1-yl)propan-2-yl)pyrrolidine-3-carboxamide] reads 0.001 to 0.03 µM. On the same count and under the same terms, the result for `O=C(N[C@H](CN1CCCC1)[C@H](O)c1ccc(OC2CC2)c(Cl)c1)[C@@H]1CCN(c2ccccn2)C1` [Compound 54, (R)-N-((1R,2R)-1-(3-chloro-4-cyclopropoxyphenyl)-1-hydroxy-3-(pyrrolidin-1-yl)propan-2-yl)-1-(pyridin-2-yl)pyrrolidine-3-carboxamide] reads 0.001 to 0.03 µM. Turning to `O=C(N[C@H](CN1CCCC1)[C@H](O)c1ccc(OC2CC2)c(Cl)c1)[C@H]1CCN(c2ccccn2)C1` [Compound 54A, (S)-N-((1R,2R)-1-(3-chloro-4-cyclopropoxyphenyl)-1-hydroxy-3-(pyrrolidin-1-yl)propan-2-yl)-1-(pyridin-2-yl)pyrrolidine-3-carboxamide], the “Data Range (% inhibition)” value is “F (1-49% (or less than 50%))”. The same measure, in the same setting: the result for `O=C(N[C@H](CN1CCCC1)[C@H](O)c1ccc2c(c1)OCCO2)[C@@H]1CCN(C2Cc3ccccc3C2)C1` [Compound 55, (R)-1-(2,3-dihydro-1H-inden-2-yl)-N-((1R,2R)-1-(2,3-dihydrobenzo[b][1,4]dioxin-6-yl)-1-hydroxy-3-(pyrrolidin-1-yl)propan-2-yl)pyrrolidine-3-carboxamide] reads “F (1-49% (or less than 50%))”; that for `O=C(N[C@H](CN1CCCC1)[C@H](O)c1ccc2c(c1)OCCO2)C1CCN(C2Cc3ccccc3C2)C1` (stereo partly drawn) [Compound 55A, 1-(2,3-dihydro-1H-inden-2-yl)-N-((1R,2R)-1-(2,3-dihydrobenzo[b][1,4]dioxin-6-yl)-1-hydroxy-3-(pyrrolidin-1-yl)propan-2-yl)pyrrolidine-3-carboxamide], “F (1-49% (or less than 50%))”. The same measure, in the same setting: the entry for `O=C(N[C@H](CN1CCCC1)[C@H](O)c1ccc2c(c1)OCCO2)[C@H]1CCN(C2Cc3ccccc3C2)C1` [Compound 55B, (S)-1-(2,3-dihydro-1H-inden-2-yl)-N-((1R,2R)-1-(2,3-dihydrobenzo[b][1,4]dioxin-6-yl)-1-hydroxy-3-(pyrrolidin-1-yl)propan-2-yl)pyrrolidine-3-carboxamide] is “F (1-49% (or less than 50%))”; for `O=C(N[C@H](CN1CCCC1)[C@H](O)c1ccc2c(c1)OCCO2)[C@@H]1CCN(c2ccnc(OC3CC3)c2)C1` [Compound 56, (R)-1-(2-cyclopropoxypyridin-4-yl)-N-((1R,2R)-1-(2,3-dihydrobenzo[b][1,4]dioxin-6-yl)-1-hydroxy-3-(pyrrolidin-1-yl)propan-2-yl)pyrrolidine-3-carboxamide] it is “F (1-49% (or less than 50%))”; for `O=C(N[C@H](CN1CCCC1)[C@H](O)c1ccc2c(c1)OCCO2)C1CCN(c2ccnc(OC3CC3)c2)C1` (stereo partly drawn) [Compound 56D, 1-(2-cyclopropoxypyridin-4-yl)-N-((1R,2R)-1-(2,3-dihydrobenzo[b][1,4]dioxin-6-yl)-1-hydroxy-3-(pyrrolidin-1-yl)propan-2-yl)pyrrolidine-3-carboxamide] it is “F (1-49% (or less than 50%))”. Still for that read-out and setting: the result for `O=C(N[C@H](CN1CCCC1)[C@H](O)c1ccc2c(c1)OCCO2)[C@H]1CCN(c2ccnc(OC3CC3)c2)C1` [Compound 56E, (S)-1-(2-cyclopropoxypyridin-4-yl)-N-((1R,2R)-1-(2,3-dihydrobenzo[b][1,4]dioxin-6-yl)-1-hydroxy-3-(pyrrolidin-1-yl)propan-2-yl)pyrrolidine-3-carboxamide] reads “F (1-49% (or less than 50%))”; that for `O=C(N[C@H](CN1CCCC1)[C@H](O)c1ccc(OC2CC2)c(Cl)c1)[C@@H]1CCN(c2ccc(Cl)cn2)C1` [Compound 57, (R)-N-((1R,2R)-1-(3-chloro-4-cyclopropoxyphenyl)-1-hydroxy-3-(pyrrolidin-1-yl)propan-2-yl)-1-(5-chloropyridin-2-yl)pyrrolidine-3-carboxamide], “F (1-49% (or less than 50%))”. Take `O=C(N[C@H](CN1CCCC1)[C@H](O)c1ccc(OC2CC2)c(Cl)c1)[C@H]1CCN(c2ccc(Cl)cn2)C1` [Compound 57A, (S)-N-((1R,2R)-1-(3-chloro-4-cyclopropoxyphenyl)-1-hydroxy-3-(pyrrolidin-1-yl)propan-2-yl)-1-(5-chloropyridin-2-yl)pyrrolidine-3-carboxamide]: the half-inhibitory concentration (IC50) lay within 0.001 to 0.03 µM.

These data come from patent US10239832B2, “N-(1-hydroxy-3-(pyrrolidinyl)propan-2-yl)pyrrolidine-3-carboxamide derivatives as glucosylceramide synthase inhibitors” (BIOMARIN PHARMACEUTICAL INC., priority 2013, dated 2019).
